The source of these data is PubChem BioAssay AID588437 (Southern Research Specialized Biocontainment Screening …, 2011).

Values joined by “and” are separate entries in the source; they are usually repeats but may differ in a detail not shown here. Equal entries are not always repeated. Records with an inconclusive call do not appear. Active and inactive are the calls of the source. No rule for the calls is given here.

System in the first experiment: not listed separately
The experiment in a line: Mycobacterium tuberculosis h37rv growth inhibition in absence of glycerol, confirmatory dose response (AID 588437). To be noted: Mycobacterium tuberculosis H37Rv growth inhibition, no glycerol.
On to `Cc1cccc(N2CCN(C(=O)c3ccc(CNc4c(N5CCC(C)CC5)c(=O)c4=O)cc3)CC2)c1C`, for which the result was inactive.
On the same count and under the same terms, under `CCOc1ccc(NC(=O)c2ccc(CNc3c(N4CCCC4)c(=O)c3=O)cc2)cc1` stands “inactive”.

Another experiment relates to Mycobacterium tuberculosis H37Rv growth inhibition, no glycerol. The description is as above.
Settings: not given
Turning to `CCOC(=O)CSc1ncnc2c1cnn2-c1ccc(C)cc1C`, the IC90 is 7.19 µM.
Consider `CCOC(=O)N1CCC(Nc2c(Nc3cccc(CC)c3)c(=O)c2=O)CC1`, for which the IC90 is 85.3 µM.
Still for that read-out and setting: in the case of `CCC(C)NC(=O)CSc1nc2ccccc2c(=O)[nH]1` (centres undefined) it was 4.01 µM; in that of `O=C(c1ccc(CNc2c(N3CCOCC3)c(=O)c2=O)cc1)N1CC=C(c2ccccc2)CC1`, 15.4 µM.
Same read-out and setting: in the case of `CCOC(=O)CSc1ncnc2c1cnn2-c1ccccc1` it was 47.7 µM.
Turning to `Cc1cccc(N2CCN(C(=O)c3ccc(CNc4c(N5CCC(C)CC5)c(=O)c4=O)cc3)CC2C)c1` (centres undefined), the IC90 was 51.8 µM.
On to `COC(=O)CSc1ncnc2c1cnn2-c1ccc(C)cc1C`, for which the IC90 was 6.65 µM.

Still in this experiment, the particulars now being: measured here: IC50 growth inhibition replicates.
On to `CCOC(=O)CSc1ncnc2c1cnn2-c1ccc(C)cc1C`, for which the IC50 was found to be 5 µM.
The same measure, in the same setting: under `O=C(c1ccc(CNc2c(N3CCCC3)c(=O)c2=O)cc1)N1CCc2ccccc2C1` stands 13.4 µM.
Still for that read-out and setting: in the case of `CC1CCN(C(=O)c2ccc(CNc3c(N4CCCC4)c(=O)c3=O)cc2)CC1` it was 20.3 µM; in that of `O=C(c1ccc(CNc2c(N3CCCC3)c(=O)c2=O)cc1)N1CC=C(c2ccccc2)CC1`, 12.5 µM and 8.13 µM.
As for `CCOC(=O)N1CCC(Nc2c(Nc3cccc(CC)c3)c(=O)c2=O)CC1`, the IC50 amounted to 65.1 µM.
In the case of `CCC(C)NC(=O)CSc1nc2ccccc2c(=O)[nH]1` (centres undefined), the IC50 amounted to 2.98 µM.
The same measure, in the same setting: under `O=C(NCCc1ccc(Cl)cc1)c1ccc(CNc2c(N3CCOCC3)c(=O)c2=O)cc1` stands 11 µM and 11.2 µM; under `O=C(NCCc1ccc(Cl)cc1)C1CCC(CNc2c(N3CCCCC3)c(=O)c2=O)CC1` (centres undefined), 22.4 µM.
`CC(=O)c1ccc(NC(=O)c2ccc(CNc3c(N4CCOCC4)c(=O)c3=O)cc2)cc1` registered a 50% inhibitory concentration (IC50) of more than 98.8 µM.
Regarding `CC1CC(C)CN(C(=O)C2CCC(CNc3c(N4CCCCC4)c(=O)c3=O)CC2)C1` (centres undefined), the IC50 is 26.9 µM and 35.5 µM.
Compound `CC(C)OC(=O)CSc1ncnc2c1cnn2-c1ccccc1` displayed a half-inhibitory concentration (IC50) of 29.5 µM.
The same measure, in the same setting: under `O=C(C1CCC(CNc2c(N3CCCCC3)c(=O)c2=O)CC1)N1CCCCC1` (centres undefined) stands 59.6 µM; under `O=C(c1ccc(CNc2c(N3CCOCC3)c(=O)c2=O)cc1)N1CC=C(c2ccccc2)CC1`, 4.83 µM.
Same read-out and setting: in the case of `CCOC(=O)CSc1ncnc2c1cnn2-c1ccccc1` it was 30.2 µM; in that of `Cc1cccc(N2CCN(C(=O)c3ccc(CNc4c(N5CCC(C)CC5)c(=O)c4=O)cc3)CC2C)c1` (centres undefined), 40.9 µM; in that of `CC1CCCN(C(=O)C2CCC(CNc3c(N4CCCCC4)c(=O)c3=O)CC2)C1` (centres undefined), 64.3 µM.
Turning to `COc1ccc(N2CCN(C(=O)c3ccc(CNc4c(N5CCOCC5)c(=O)c4=O)cc3)CC2)cc1`, the IC50 is 21.7 µM and 18.5 µM.
The same measure, in the same setting: in the case of `CC1CCCN(C(=O)c2ccc(CNc3c(N4CCCCC4)c(=O)c3=O)cc2)C1` (centres undefined) it was 14.1 µM; in that of `CC1CC(C)CN(C(=O)c2ccc(CNc3c(N4CCCC4)c(=O)c3=O)cc2)C1` (centres undefined), 22.8 µM; in that of `COC(=O)CSc1ncnc2c1cnn2-c1ccc(C)cc1C`, 5.41 µM.
